# Reference: PubChem BioAssay AID256 (DTP/NCI, 2004)
# Where “and” joins values, the source holds several entries; their conditions need not be identical. Equal values may be shown once. Toxic doses and inconclusive results are not listed.
# Tested on: CD2F1 mice, L1210 leukemia ip, survival T/C
# Assay: NCI In Vivo Anticancer Drug Screen. Data for tumor model L1210 Leukemia (intraperitoneal) in CD2F1 (CDF1) mice
# Details: endpoint: mean survival time, higher = longer survival
# Method in brief: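 In this screen, transplantable tumors were grown in mice given either the compound or its vehicle. Results were expressed as the treated measurement relative to the control measurement.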
# [1] = dose: 100.0 mg/kg/injection, schedule: Q01DX009 (ip), vehicle: saline with Tween-80
# [2] = dose: 200.0 mg/kg/injection, schedule: Q01DX009 (ip), vehicle: saline with Tween-80
# [3] = dose: 400.0 mg/kg/injection, schedule: Q01DX009 (ip), vehicle: saline with Tween-80
# [4] = dose: 50.0 mg/kg/injection, schedule: Q01DX009 (ip), vehicle: saline with Tween-80
# [5] = dose: 100.0 mg/kg/injection, schedule: Q04DX003 (ip), vehicle: saline
# [6] = dose: 200.0 mg/kg/injection, schedule: Q04DX003 (ip), vehicle: saline
# [7] = dose: 100.0 mg/kg/injection, schedule: Q04DX002 (ip), vehicle: saline with Tween-80
# [8] = dose: 200.0 mg/kg/injection, schedule: Q04DX002 (ip), vehicle: saline with Tween-80
# [9] = dose: 25.0 mg/kg/injection, schedule: Q01DX009 (ip), vehicle: Klucel (hydroxypropylcellulose) (HPC)
# [10] = dose: 50.0 mg/kg/injection, schedule: Q01DX009 (ip), vehicle: Klucel (hydroxypropylcellulose) (HPC)
# [11] = dose: 100.0 mg/kg/injection, schedule: Q04DX003 (ip), vehicle: saline with Tween-80
# [12] = dose: 200.0 mg/kg/injection, schedule: Q04DX003 (ip), vehicle: saline with Tween-80
# [13] = dose: 400.0 mg/kg/injection, schedule: Q04DX003 (ip), vehicle: saline with Tween-80
smiles,measurement,setting,value
CCC12CN3CCc4c([nH]c5ccccc45)C(C(=O)OC)(c4cc5c(cc4OC)N(C)C4C(O)(C(=O)OC)C(OC(C)=O)C6(CC)C=CCN7CCC54C76)CC(C3)C1O2.CI.CO.[I][Hg][I] (stereo unspecified),T/C,"dose: 100.0 mg/kg/injection, schedule: Q01DX001 (ip), vehicle: saline",100 % of control
CCN(C(=O)Nc1cc([N+](=O)[O-])ccc1C)c1cc(C)ccc1OC,T/C,[1],88 % of control
same,T/C,[2],94 % of control
same,T/C,[3],94 % of control
CCN(CC)c1ccc2c(-c3ccccc3C(=O)O)c3ccc(=[N+](CC)CC)cc-3oc2c1,T/C,"dose: 5.0 mg/kg/injection, schedule: Q04DX003 (ip), vehicle: saline with Tween-80",105 % of control
same,T/C,"dose: 10.0 mg/kg/injection, schedule: Q04DX003 (ip), vehicle: saline with Tween-80",105 % of control
same,T/C,"dose: 20.0 mg/kg/injection, schedule: Q04DX003 (ip), vehicle: saline with Tween-80",102 % of control
same,T/C,[1],101 % of control
same,T/C,[2],103 % of control
same,T/C,[3],100 % of control
CC(C)(CCC(=O)O)C(=O)O,T/C,[4],100 % of control
same,T/C,[1],98 % of control
same,T/C,[5],102 % of control
same,T/C,[2],98 % of control
same,T/C,[6],96 % of control
COC(=O)c1ccccc1NC1=NCCO1,T/C,"dose: 200.0 mg/kg/injection, schedule: Q04DX003 (ip), vehicle: Klucel (hydroxypropylcellulose) (HPC)",97 % of control
same,T/C,"dose: 400.0 mg/kg/injection, schedule: Q04DX003 (ip), vehicle: Klucel (hydroxypropylcellulose) (HPC)",86 % of control
Cc1ccc(NC(=O)/C=C/C(=O)O)cc1,T/C,[1],105 % of control
same,T/C,[2],107 % of control
same,T/C,[3],103 % of control
CC1=C2C3OC(=O)C(C)C3CCC2(C)C=CC1=O (stereo unspecified),T/C,[7],116 % of control
same,T/C,[8],116 % of control
NNC(=O)c1cc(Cl)cc(C(=O)NN)n1,T/C,[4],97 % of control
Cc1cc([N+](=O)[O-])c(S(N)(=O)=O)c([N+](=O)[O-])c1,T/C,[9],98 % of control
same,T/C,[10],95 % of control
CN(C)[C@@H]1C(=O)C(C(=O)NCNC(Cc2ccc(N(CCCl)CCCl)cc2)C(=O)O)=C(O)[C@@]2(O)C(=O)C3=C(O)c4c(O)cccc4[C@@](C)(O)[C@H]3C[C@@H]12 (stereo partly specified),T/C,"dose: 100.0 mg/kg/injection, schedule: Q01DX001 (ip), vehicle: other",164 % of control
CCOC(CNC(C)c1ccc2cc(OC)c(OC)cc2c1)OCC (stereo unspecified),T/C,"dose: 12.5 mg/kg/injection, schedule: Q01DX009 (ip), vehicle: Klucel (hydroxypropylcellulose) (HPC)",97 % of control
same,T/C,[9],92 % of control
same,T/C,[10],89 % of control
same,T/C,"dose: 100.0 mg/kg/injection, schedule: Q01DX009 (ip), vehicle: Klucel (hydroxypropylcellulose) (HPC)",95 % of control
same,T/C,"dose: 200.0 mg/kg/injection, schedule: Q01DX009 (ip), vehicle: Klucel (hydroxypropylcellulose) (HPC)",100 % of control
same,T/C,"dose: 400.0 mg/kg/injection, schedule: Q01DX009 (ip), vehicle: Klucel (hydroxypropylcellulose) (HPC)",90 % of control
O=c1ccn(C2OC(CO)C(O)C2O)c(/C=C(\O)c2ccccc2)n1 (stereo unspecified),T/C,"dose: 12.5 mg/kg/injection, schedule: Q01DX005 (ip), vehicle: distilled water + Tween-80",105 % of control
same,T/C,"dose: 25.0 mg/kg/injection, schedule: Q01DX005 (ip), vehicle: distilled water + Tween-80",97 % of control
same,T/C,"dose: 50.0 mg/kg/injection, schedule: Q01DX005 (ip), vehicle: distilled water + Tween-80",97 % of control
same,T/C,"dose: 100.0 mg/kg/injection, schedule: Q01DX005 (ip), vehicle: distilled water + Tween-80",102 % of control
same,T/C,"dose: 200.0 mg/kg/injection, schedule: Q01DX005 (ip), vehicle: distilled water + Tween-80",102 % of control
COc1ccc([Si](C)(C)CNCCSS(=O)(=O)O)cc1,T/C,[4],97 % of control
same,T/C,[1],103 % of control
same,T/C,[11],101 % of control
same,T/C,[2],92 % of control
same,T/C,[12],95 % of control
CC(C)(C)NC(=O)CCC1C2C=CC(C2)C1C#N (stereo unspecified),T/C,[11],93 % of control
same,T/C,[12],91 % of control
same,T/C,[13],98 % of control
O=C(O)CCC(=O)c1ccc(Br)cc1,T/C,[1],94 % of control
same,T/C,[11],101 % of control
same,T/C,[2],103 % of control
same,T/C,[12],97 % of control
same,T/C,[3],91 % of control
same,T/C,[13],89 % of control
Cc1cccc(Br)[n+]1[O-],T/C,[5],92 % of control
same,T/C,[6],101 % of control
CN(C)CCSc1cc(O)c2c(c1O)C(=O)c1ccccc1C2=O,T/C,"dose: 25.0 mg/kg/injection, schedule: Q01DX009 (ip), vehicle: water",95 % of control
same,T/C,"dose: 50.0 mg/kg/injection, schedule: Q01DX009 (ip), vehicle: water",98 % of control
same,T/C,"dose: 100.0 mg/kg/injection, schedule: Q01DX009 (ip), vehicle: water",92 % of control
same,T/C,"dose: 200.0 mg/kg/injection, schedule: Q01DX009 (ip), vehicle: water",95 % of control
CCCCCCCC(=O)Nc1c(C)cc(C)cc1C,T/C,[1],91 % of control
same,T/C,[2],98 % of control
same,T/C,[3],92 % of control
[Br][Pt+2][Br].[NH-]C(CC([NH-])c1ccccc1)c1ccccc1 (stereo unspecified),T/C,"dose: 12.5 mg/kg/injection, schedule: Q04DX003 (ip), vehicle: saline with Tween-80",101 % of control and 107 % of control and 112 % of control
same,T/C,"dose: 25.0 mg/kg/injection, schedule: Q04DX003 (ip), vehicle: saline with Tween-80",102 % of control and 89 % of control
same,T/C,"dose: 50.0 mg/kg/injection, schedule: Q04DX003 (ip), vehicle: saline with Tween-80",91 % of control
O=C1NC(=O)C(C2CC2)(C2CC2)N1,T/C,[1],95 % of control
same,T/C,[2],94 % of control
same,T/C,[3],96 % of control
CCCCCCCCCC(=O)Nc1ccc(C(=O)OCC)cc1,T/C,[1],95 % of control
same,T/C,[2],97 % of control
same,T/C,[3],98 % of control
COc1cc(CC(=O)NO)cc(OC)c1OC,T/C,[7],88 % of control
same,T/C,[8],88 % of control
C[Si](C)(C)O/C=C1/CCOC1=O,T/C,"dose: 12.5 mg/kg/injection, schedule: Q01DX009 (ip), vehicle: saline",97 % of control and 107 % of control
same,T/C,"dose: 25.0 mg/kg/injection, schedule: Q01DX009 (ip), vehicle: saline",106 % of control and 108 % of control
same,T/C,"dose: 50.0 mg/kg/injection, schedule: Q01DX009 (ip), vehicle: saline",103 % of control and 104 % of control
same,T/C,"dose: 100.0 mg/kg/injection, schedule: Q01DX009 (ip), vehicle: saline",104 % of control and 106 % of control
same,T/C,"dose: 200.0 mg/kg/injection, schedule: Q01DX009 (ip), vehicle: saline",105 % of control and 112 % of control
same,T/C,"dose: 400.0 mg/kg/injection, schedule: Q01DX009 (ip), vehicle: saline",113 % of control and 112 % of control
Nc1cc(S(=O)(=O)O)c2cccnc2c1O,T/C,[5],114 % of control
same,T/C,[6],108 % of control
Cc1cccc2cc3c(sc4ccccc43)c(C)c12,T/C,"dose: 7.9 mg/kg/injection, schedule: Q04DX003 (ip), vehicle: other",101 % of control
same,T/C,"dose: 15.7 mg/kg/injection, schedule: Q04DX003 (ip), vehicle: other",97 % of control
same,T/C,"dose: 31.3 mg/kg/injection, schedule: Q04DX003 (ip), vehicle: other",97 % of control
same,T/C,"dose: 62.5 mg/kg/injection, schedule: Q04DX003 (ip), vehicle: other",97 % of control
same,T/C,"dose: 125.0 mg/kg/injection, schedule: Q04DX003 (ip), vehicle: other",93 % of control
O=C(C[n+]1ccc2ccccc2c1)c1ccccc1,T/C,"dose: 25.0 mg/kg/injection, schedule: Q04DX003 (ip), vehicle: saline sonified",98 % of control
same,T/C,"dose: 50.0 mg/kg/injection, schedule: Q04DX003 (ip), vehicle: saline sonified",93 % of control
O=Cc1ccc(OCCCOc2ccc([N+](=O)[O-])cc2)cc1,T/C,"dose: 100.0 mg/kg/injection, schedule: Q04DX002 (ip), vehicle: Klucel (hydroxypropylcellulose) (HPC)",102 % of control
same,T/C,"dose: 200.0 mg/kg/injection, schedule: Q04DX002 (ip), vehicle: Klucel (hydroxypropylcellulose) (HPC)",94 % of control
same,T/C,"dose: 400.0 mg/kg/injection, schedule: Q04DX002 (ip), vehicle: Klucel (hydroxypropylcellulose) (HPC)",102 % of control
CSCC12CCCC=C1CC1(CC2)OCCO1 (stereo unspecified),T/C,"dose: 100.0 mg/kg/injection, schedule: Q01DX001 (ip), vehicle: saline with Tween-80",96 % of control
same,T/C,"dose: 200.0 mg/kg/injection, schedule: Q01DX001 (ip), vehicle: saline with Tween-80",96 % of control
same,T/C,"dose: 400.0 mg/kg/injection, schedule: Q01DX001 (ip), vehicle: saline with Tween-80",96 % of control
CC(C)(C#N)N1CCCCC1,T/C,"dose: 1.25 mg/kg/injection, schedule: Q01DX009 (ip), vehicle: saline with Tween-80",107 % of control
same,T/C,"dose: 2.5 mg/kg/injection, schedule: Q01DX009 (ip), vehicle: saline with Tween-80",104 % of control
same,T/C,"dose: 5.0 mg/kg/injection, schedule: Q01DX009 (ip), vehicle: saline with Tween-80",98 % of control
same,T/C,"dose: 5.0 mg/kg/injection, schedule: Q04DX003 (ip), vehicle: saline",101 % of control
